In patent publication US10246439B2, “Apoptosis signal-regulating kinase 1 inhibitors and methods of use thereof” (ENANTA PHARMACEUTICALS, INC., priority 2017, dated 2019):

Target: T1, ASK1 (Homo sapiens, UniProt Q99683)
T1 construct: purchased Thermofisher PV4011
T1 sequence (Q99683 1-1374): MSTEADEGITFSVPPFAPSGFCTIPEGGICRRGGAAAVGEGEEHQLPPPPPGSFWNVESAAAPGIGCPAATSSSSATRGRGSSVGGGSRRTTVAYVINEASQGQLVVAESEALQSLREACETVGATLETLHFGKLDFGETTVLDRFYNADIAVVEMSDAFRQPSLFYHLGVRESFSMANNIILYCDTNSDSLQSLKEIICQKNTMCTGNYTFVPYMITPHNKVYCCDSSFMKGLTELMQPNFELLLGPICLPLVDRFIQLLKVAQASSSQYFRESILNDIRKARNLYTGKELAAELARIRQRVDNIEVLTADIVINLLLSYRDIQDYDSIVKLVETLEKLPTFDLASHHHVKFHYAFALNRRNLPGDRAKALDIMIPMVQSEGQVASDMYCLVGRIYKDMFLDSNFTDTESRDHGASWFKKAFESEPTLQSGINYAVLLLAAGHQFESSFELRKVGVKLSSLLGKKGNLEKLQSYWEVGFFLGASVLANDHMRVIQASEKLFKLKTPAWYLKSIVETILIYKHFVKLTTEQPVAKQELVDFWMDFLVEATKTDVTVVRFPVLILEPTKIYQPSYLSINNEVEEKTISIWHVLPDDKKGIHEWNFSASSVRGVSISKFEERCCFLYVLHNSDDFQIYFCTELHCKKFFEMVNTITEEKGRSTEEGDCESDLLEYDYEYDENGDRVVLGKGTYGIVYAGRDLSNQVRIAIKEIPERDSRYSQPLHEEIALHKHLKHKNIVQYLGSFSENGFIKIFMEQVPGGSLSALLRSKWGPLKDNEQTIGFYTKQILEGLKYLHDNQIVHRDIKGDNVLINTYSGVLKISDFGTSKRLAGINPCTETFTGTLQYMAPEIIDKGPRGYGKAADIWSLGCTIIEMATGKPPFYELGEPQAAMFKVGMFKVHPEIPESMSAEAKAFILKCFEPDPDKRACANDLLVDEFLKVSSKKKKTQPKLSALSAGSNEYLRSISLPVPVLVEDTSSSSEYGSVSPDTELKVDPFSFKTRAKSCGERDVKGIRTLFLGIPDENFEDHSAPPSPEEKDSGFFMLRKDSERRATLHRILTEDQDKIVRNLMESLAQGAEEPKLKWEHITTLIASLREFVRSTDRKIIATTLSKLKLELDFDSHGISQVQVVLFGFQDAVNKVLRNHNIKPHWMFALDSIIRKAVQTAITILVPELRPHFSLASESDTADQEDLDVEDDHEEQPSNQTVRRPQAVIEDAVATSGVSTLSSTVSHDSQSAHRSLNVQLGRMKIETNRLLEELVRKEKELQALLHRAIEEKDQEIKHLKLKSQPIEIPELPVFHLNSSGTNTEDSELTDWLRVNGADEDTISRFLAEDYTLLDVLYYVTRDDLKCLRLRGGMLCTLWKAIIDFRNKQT
Experiment: HTRF KinEASE-STK TR-FRET kinase assay, inhibition of ASK1
Assay type: biochemical
Conditions: 5 nM ASK1, 1 uM STK3 peptide substrate, 100 uM ATP
Description: ASK1 was purchased from Thermofisher (Catalogue # PV4011), ATP was purchased from Sigma (Catalogue # A7699), HTRF® KinEASE™ Assay System was obtained from Cisbio (Bedford, Mass.). ½ Area plate was purchased from Perkin Elmer (Catalogue # #6005560). HTRF® KinEASE™-STK is a generic method for measuring serine/threonine kinase activities using a time-resolved fluorescence resonance energy transfer (TR-FRET) immunoassay. The IC50 value for each compound was determined in the presence of compound (various concentration from 0 to 10 μM) and a fixed amount of ATP and peptide substrates. The test compound, 1 uM STK3 peptide substrate, and 5 nM of ASK1 kinase are incubated with kinase reaction buffer containing 50 mM HEPES pH 7.5, 0.01% BRIJ-35, 10 mM MgCl2, and 1 mM EGTA for 30 minutes. 100 uM ATP is added to start kinase reaction and incubated for 3 hours. The STK3-antibody labeled with Eu^3+-Cryptate and 125 nM streptavidin-XL665 are mixed in a single addition with stop reagents provided by the Cisbio kit used to stop the kinase reaction. Fluorescence is detected using an Envision Multilabeled 2014 reader from PerkinElmer. The Fluorescence is measured at 615 nm (Cryptate) and 665 nm (XL665) and a ratio of 665 nm/615 nm is calculated for each well. The resulting TR-FRET is proportional to the phosphorylation level. Staurosporine was used as the positive control. IC50 was determined by XLfit 5.3.

Row | SMILES | IC50 [nM]
1 | CCCCNc1nc2cc(F)c(C(=O)Nc3cccc(-c4nncn4C(C)C)n3)cc2s1 [Example 27] | 1 to 10
2 | CC(C)n1cnnc1-c1cccc(NC(=O)c2ccc3nc(N4CC5CC5C4)sc3c2)n1 (centres unmarked) [Example 52] | 10 to 100
3 | CC(C)n1cnnc1-c1cccc(NC(=O)c2cc3sc(N4CCCCC4)nc3cn2)n1 [Example 66, N-(6-(4-isopropyl-4H-1,2,4-triazol-3-yl)pyridin-2-yl)-2-(piperidin-1-yl)thiazolo[4,5-c]pyridine-6-carboxamide] | 1 to 10
4 | CC(C)n1cnnc1-c1cccc(NC(=O)c2ccc3nc(N4CC5(COC5)C4)sc3c2)n1 [Example 18] | 10 to 100
5 | CC(C)n1cnnc1-c1cccc(NC(=O)c2ccc3nc(N4CCC4)sc3c2)n1 [Example 21] | 100 to 1000
6 | CC(C)n1cnnc1-c1cccc(NC(=O)c2ccc3nc(N4CCCCC4)sc3c2)n1 [Example 60, N-(6-(4-isopropyl-4H-1,2,4-triazol-3-yl)pyridin-2-yl)-2-(piperidin-1-yl)benzo[d]thiazole-6-carboxamide] | 10 to 100
7 | CC(C)n1cnnc1-c1cccc(NC(=O)c2cc3sc(NCC4CC4)nc3cc2F)n1 [Example 48] | 10 to 100
8 | CC(C)n1cnnc1-c1cccc(NC(=O)c2cc3sc(N(C)C4CCCCC4)nc3cc2F)n1 [Example 8] | 1 to 10
9 | CC(C)n1cnnc1-c1cccc(NC(=O)c2cc3sc(NC4CC4)nc3cc2F)n1 [Example 6, 2-(cyclopropylamino)-5-fluoro-N-(6-(4-isopropyl-4H-1,2,4-triazol-3-yl)pyridin-2-yl)benzo[d]thiazole-6-carboxamide] | 1 to 10
10 | CC(C)n1cnnc1-c1cccc(NC(=O)c2cc3sc(N4CCC(C(C)(C)C)CC4)nc3cn2)n1 [Example 73] | > 1000
11 | CC(C)n1cnnc1-c1cccc(NC(=O)c2ccc3nc(NC4CCCCC4)sc3c2)n1 [Example 24] | 10 to 100

Next, values leading:

Row | IC50 [nM] | SMILES
12 | 100 to 1000 | CC(C)n1nnnc1-c1cccc(NC(=O)c2cc3sc(N4CCN(C(C)(C)C)CC4)nc3cn2)n1 [Example 71]
13 | 10 to 100 | CC(C)n1cnnc1-c1cccc(NC(=O)c2ccc3nc(N4CCOCC4)sc3c2)n1 [Example 61]
14 | > 1000 | CC(C)n1nnnc1-c1cccc(NC(=O)c2cc3sc(C4CC4)nc3cc2F)n1 [Example 31]
15 | 10 to 100 | CC(C)n1cnnc1-c1cccc(NC(=O)c2cc3sc(C4CCC4)nc3cc2F)n1 [Example 37]
16 | 10 to 100 | CC(C)n1nnnc1-c1cccc(NC(=O)c2cc3sc(N(C)C)nc3cc2F)n1 [Example 5]
17 | > 1000 | CC(C)n1nnnc1-c1cccc(NC(=O)c2cc3sc(N4CCN(C(C)(C)C)CC4)nc3cc2F)n1 [Example 3, 2-(4-(tert-butyl)piperazin-1-yl)-5-fluoro-N-(6-(1-isopropyl-1H-tetrazol-5-yl)pyridin-2-yl)benzo[d]thiazole-6-carboxamide]
18 | > 1000 | CNc1nc2cc(F)c(C(=O)Nc3cccc(-c4nnnn4C(C)C)n3)cc2s1 [Example 33]
19 | > 1000 | CCCCN(C)c1nc2cc(F)c(C(=O)Nc3cccc(-c4nnnn4C(C)C)n3)cc2s1 [Example 43]
20 | > 1000 | CC(C)n1nnnc1-c1cccc(NC(=O)c2cc3sc(N4CCCC4)nc3cc2F)n1 [Example 47]
21 | 10 to 100 | CC(C)n1cnnc1-c1cccc(NC(=O)c2cc3sc(C4CC4)nc3cc2F)n1 [Example 7, 2-cyclopropyl-5-fluoro-N-(6-(4-isopropyl-4H-1,2,4-triazol-3-yl)pyridin-2-yl)benzo[d]thiazole-6-carboxamide]
22 | 10 to 100 | CC(C)n1nnnc1-c1cccc(NC(=O)c2cc3sc(N4CCOCC4)nc3cc2F)n1 [Example 46]
23 | > 1000 | CC(C)n1nnnc1-c1cccc(NC(=O)c2cc3sc(N(C)C4CC4)nc3cc2F)n1 [Example 32]
24 | 1 to 10 | CC(C)n1cnnc1-c1cccc(NC(=O)c2cc3sc(N4CCCCC4)nc3cc2F)n1 [Example 30, 5-fluoro-N-(6-(4-isopropyl-4H-1,2,4-triazol-3-yl)pyridin-2-yl)-2-(piperidin-1-yl)benzo[d]thiazole-6-carboxamide]
25 | 1 to 10 | CC(C)n1cnnc1-c1cccc(NC(=O)c2cc3sc(N4CCN(C5CC5)CC4)nc3cc2F)n1 [Example 12]
26 | 1 to 10 | CC(C)n1cnnc1-c1cccc(NC(=O)c2cc3sc(N4CCOCC4)nc3cc2F)n1 [Example 16]
